Results reported in patent US11905294B2, “Imidazo[1,5-a]pyrazine derivatives as PI3Kδ inhibitors” (BEIGENE, LTD., priority 2017, dated 2024).

Columns and labels:
Format in all cases: biochemical
[1] = molecular target: PI3K (p110γ) (Homo sapiens, UniProt P48736); assay: PI3Kγ assay (ADP-Glo Kinase Assay); settings: recombinant enzyme; IC50 (nM) or max inhibition (%) at 0.5 μM
[2] = molecular target: PI3K (p110δ/p85α) (Homo sapiens, UniProt O00329); assay: PI3Kδ assay (ADP-Glo Kinase Assay); settings: recombinant enzyme; IC50 (nM) or max inhibition (%) at 0.5 μM
Method: Compounds disclosed herein were tested for inhibition of PI3Kδ kinase activity using commercial ADP-Glo™ Kinase Assay (Promega Corporation) and following the manufacture's instruction. Briefly, recombinant PI3K (p110δ/p85α) enzyme, lipid kinase substrate and a serial dilution of compounds disclosed herein were incubated for 0.5 hr at room temperature. ATP was added to initiate the kinase reaction. After incubation for 1 hr at room temperature, ADP-Glo™ reagent was added to terminate the kinase reaction and deplete the remaining ATP. After incubation for 1 hr at room temperature, kinase detection reagent was added to simultaneously convert ADP to ATP and allow the newly synthesized ATP to be measured using a luciferase/luciferin reaction. After incubation for 0.5 hr at room temperature, the luminescence generated was measured on a PHERAstar FS plate reader (BMG LABTECH). The residual enzyme activity in presence of increasing concentrations of compounds was calculated based on the luminescence. The IC50 for each compound was derived from fitting the data to the four-parameter logistic equation by Graphpad Prism software.

[3] = molecular target: PI3K (p110β/p85α) (Homo sapiens, UniProt P42338); assay: PI3Kβ assay (ADP-Glo Kinase Assay); settings: read-out: Enzyme activity IC50 PI3Kβ
[4] = molecular target: PI3K (p110α/p85α) (Homo sapiens, UniProt P42336); assay: PI3Kα assay (ADP-Glo Kinase Assay); settings: recombinant enzyme; IC50 (nM) or max inhibition (%) at 0.5 μM
Chain of PI3K (p110α/p85α) (P42336 whole entry): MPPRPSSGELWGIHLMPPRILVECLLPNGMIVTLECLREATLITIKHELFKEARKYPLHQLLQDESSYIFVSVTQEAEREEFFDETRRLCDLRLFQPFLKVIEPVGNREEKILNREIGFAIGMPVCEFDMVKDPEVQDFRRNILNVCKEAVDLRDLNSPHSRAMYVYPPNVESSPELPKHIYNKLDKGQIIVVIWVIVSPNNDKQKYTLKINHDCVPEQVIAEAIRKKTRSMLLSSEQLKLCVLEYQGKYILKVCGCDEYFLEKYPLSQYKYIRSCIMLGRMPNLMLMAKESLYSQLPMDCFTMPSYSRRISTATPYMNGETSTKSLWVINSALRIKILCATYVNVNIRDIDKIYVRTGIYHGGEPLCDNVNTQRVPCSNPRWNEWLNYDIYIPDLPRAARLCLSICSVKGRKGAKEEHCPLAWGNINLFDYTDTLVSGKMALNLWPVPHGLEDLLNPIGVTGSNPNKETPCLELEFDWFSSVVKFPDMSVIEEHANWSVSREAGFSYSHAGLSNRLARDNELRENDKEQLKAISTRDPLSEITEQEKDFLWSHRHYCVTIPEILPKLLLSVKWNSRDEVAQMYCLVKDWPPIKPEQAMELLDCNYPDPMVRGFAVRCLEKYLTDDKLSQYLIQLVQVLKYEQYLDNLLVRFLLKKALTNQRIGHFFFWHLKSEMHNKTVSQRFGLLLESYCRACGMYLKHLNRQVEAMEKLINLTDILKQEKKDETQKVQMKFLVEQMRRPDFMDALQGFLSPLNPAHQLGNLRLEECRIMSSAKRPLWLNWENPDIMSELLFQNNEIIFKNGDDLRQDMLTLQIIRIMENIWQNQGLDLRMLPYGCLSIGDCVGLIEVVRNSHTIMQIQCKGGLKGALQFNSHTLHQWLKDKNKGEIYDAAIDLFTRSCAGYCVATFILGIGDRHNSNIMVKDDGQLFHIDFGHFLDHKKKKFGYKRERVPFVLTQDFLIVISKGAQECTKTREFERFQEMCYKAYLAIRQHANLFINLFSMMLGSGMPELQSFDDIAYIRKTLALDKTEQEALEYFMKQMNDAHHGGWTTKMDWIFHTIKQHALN
Chain of PI3K (p110α/p85α) (P27986 whole entry partner): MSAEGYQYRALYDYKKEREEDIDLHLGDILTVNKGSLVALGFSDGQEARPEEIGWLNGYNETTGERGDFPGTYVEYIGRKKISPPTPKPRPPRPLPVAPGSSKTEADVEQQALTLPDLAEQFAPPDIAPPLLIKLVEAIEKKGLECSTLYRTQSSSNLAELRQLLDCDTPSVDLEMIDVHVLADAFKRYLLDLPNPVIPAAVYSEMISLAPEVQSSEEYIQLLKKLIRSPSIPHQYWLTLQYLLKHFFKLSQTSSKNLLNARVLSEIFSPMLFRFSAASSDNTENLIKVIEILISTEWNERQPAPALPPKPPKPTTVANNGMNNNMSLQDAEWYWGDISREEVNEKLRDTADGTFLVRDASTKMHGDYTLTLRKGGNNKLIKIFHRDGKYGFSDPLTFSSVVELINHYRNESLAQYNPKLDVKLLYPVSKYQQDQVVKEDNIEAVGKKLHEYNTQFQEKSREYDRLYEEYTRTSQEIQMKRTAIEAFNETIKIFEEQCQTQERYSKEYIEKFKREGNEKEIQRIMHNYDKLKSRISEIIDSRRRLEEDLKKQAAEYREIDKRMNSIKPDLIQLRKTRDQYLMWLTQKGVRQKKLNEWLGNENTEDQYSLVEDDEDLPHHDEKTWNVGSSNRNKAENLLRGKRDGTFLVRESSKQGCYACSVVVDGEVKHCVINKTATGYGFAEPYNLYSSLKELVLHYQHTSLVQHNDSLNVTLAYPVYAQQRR

Chain of PI3K (p110δ/p85α) (O00329 whole entry): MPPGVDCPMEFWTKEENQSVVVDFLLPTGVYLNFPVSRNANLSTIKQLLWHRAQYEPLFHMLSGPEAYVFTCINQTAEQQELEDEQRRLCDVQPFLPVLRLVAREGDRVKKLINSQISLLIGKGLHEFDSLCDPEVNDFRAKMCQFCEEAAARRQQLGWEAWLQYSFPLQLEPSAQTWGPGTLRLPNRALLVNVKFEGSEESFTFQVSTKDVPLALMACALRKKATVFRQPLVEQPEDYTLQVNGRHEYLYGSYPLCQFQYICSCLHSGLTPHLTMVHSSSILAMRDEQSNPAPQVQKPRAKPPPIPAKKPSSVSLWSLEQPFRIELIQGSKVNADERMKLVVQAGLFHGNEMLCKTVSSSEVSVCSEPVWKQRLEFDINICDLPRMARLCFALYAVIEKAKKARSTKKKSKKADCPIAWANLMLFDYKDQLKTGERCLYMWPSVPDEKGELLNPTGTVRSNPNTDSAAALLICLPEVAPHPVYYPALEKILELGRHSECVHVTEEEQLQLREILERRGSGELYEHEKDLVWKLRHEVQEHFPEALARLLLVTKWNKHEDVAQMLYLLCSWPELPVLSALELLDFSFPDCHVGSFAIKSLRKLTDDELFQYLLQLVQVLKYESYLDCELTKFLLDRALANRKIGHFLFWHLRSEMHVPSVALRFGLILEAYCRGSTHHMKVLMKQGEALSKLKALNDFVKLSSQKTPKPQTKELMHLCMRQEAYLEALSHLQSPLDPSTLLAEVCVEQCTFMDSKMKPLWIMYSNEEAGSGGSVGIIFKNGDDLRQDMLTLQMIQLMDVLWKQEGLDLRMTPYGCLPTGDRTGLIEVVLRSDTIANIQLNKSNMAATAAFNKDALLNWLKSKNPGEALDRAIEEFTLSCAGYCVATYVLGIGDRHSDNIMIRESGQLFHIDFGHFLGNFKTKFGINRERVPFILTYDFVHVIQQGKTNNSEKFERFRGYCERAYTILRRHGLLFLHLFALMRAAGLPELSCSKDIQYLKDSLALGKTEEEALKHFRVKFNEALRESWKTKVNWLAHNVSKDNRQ
Chain of PI3K (p110δ/p85α) (P27986 whole entry partner): as the sequence (P27986 whole entry partner) above
Chain of PI3K (p110β/p85α) (P42338 whole entry): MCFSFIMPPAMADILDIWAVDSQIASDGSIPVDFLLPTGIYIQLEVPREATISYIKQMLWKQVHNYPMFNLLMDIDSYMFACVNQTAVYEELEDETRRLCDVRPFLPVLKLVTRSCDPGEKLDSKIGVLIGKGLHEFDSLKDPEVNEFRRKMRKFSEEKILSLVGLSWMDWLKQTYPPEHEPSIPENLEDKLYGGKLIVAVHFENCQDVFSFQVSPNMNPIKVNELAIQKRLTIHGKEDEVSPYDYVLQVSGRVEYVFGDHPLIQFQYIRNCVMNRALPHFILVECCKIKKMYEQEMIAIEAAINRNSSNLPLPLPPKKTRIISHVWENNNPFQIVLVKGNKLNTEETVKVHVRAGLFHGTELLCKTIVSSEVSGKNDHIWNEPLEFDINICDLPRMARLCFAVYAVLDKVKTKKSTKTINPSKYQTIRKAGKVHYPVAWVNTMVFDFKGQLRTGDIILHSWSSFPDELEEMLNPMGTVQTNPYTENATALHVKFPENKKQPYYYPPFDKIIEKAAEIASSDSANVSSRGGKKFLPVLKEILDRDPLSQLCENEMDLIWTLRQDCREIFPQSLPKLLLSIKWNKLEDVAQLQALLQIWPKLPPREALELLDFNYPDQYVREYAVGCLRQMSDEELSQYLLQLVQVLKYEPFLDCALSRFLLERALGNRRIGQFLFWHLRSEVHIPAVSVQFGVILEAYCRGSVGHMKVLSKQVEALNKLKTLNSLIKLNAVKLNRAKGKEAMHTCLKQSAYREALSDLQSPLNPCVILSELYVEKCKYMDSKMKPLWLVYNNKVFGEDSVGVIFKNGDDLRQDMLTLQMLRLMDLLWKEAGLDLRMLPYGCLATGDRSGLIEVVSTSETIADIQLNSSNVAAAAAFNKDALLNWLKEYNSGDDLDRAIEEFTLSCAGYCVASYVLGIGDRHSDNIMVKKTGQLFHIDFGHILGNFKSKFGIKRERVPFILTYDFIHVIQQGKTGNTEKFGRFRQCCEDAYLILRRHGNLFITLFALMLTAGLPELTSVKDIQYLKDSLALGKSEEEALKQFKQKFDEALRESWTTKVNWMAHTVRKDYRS
Chain of PI3K (p110β/p85α) (P27986 whole entry partner): as the sequence (P27986 whole entry partner) above
Chain of PI3K (p110γ) (P48736 whole entry): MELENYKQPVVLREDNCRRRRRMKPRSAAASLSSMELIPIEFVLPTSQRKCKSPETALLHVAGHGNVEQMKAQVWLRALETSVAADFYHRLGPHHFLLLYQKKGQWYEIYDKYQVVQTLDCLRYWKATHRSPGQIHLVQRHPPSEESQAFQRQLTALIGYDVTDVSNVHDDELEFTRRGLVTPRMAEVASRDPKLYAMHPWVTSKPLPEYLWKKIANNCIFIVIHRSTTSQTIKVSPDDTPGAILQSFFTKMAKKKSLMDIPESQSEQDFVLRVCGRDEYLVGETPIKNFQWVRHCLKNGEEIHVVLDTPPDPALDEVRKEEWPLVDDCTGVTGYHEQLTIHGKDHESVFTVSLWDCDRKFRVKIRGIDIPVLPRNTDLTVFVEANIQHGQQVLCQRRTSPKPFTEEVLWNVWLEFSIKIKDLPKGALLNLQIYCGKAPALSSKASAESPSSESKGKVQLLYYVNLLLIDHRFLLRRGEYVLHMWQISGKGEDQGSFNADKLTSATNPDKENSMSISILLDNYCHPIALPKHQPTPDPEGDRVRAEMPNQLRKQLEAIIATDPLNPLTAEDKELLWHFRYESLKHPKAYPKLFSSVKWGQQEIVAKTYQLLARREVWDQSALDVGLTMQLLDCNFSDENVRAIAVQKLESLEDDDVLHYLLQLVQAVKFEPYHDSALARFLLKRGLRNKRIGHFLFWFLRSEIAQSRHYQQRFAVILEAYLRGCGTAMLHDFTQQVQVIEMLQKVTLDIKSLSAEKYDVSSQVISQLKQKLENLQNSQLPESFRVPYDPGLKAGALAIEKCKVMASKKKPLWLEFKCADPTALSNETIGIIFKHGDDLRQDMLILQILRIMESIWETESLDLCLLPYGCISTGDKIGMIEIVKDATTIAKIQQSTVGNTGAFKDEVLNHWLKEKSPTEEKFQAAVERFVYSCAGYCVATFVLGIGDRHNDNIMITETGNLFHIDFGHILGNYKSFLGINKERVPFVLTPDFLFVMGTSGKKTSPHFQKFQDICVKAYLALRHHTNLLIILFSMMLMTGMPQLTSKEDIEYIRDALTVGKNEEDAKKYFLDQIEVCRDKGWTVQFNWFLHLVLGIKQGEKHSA

| Structure (SMILES) | IC50 [1] [nM] | IC50 [2] [nM] | IC50 [3] [µM] | IC50 [4] [nM] |
| --- | --- | --- | --- | --- |
| Cc1nc(C(C)c2cc(Cl)c(F)c(C(=O)NCC3(O)CC3)c2OC(C)C)n2ccnc(N)c12 (stereo not shown) [Compound 10, 3-(1-(8-amino-1-methylimidazo[1,5-a]pyrazin-3-yl)ethyl)-5-chloro-6-fluoro-N-((1-hydroxycyclopropyl)methyl)-2-isopropoxybenzamide] | 9000 | 3 | 22 | 34000 |
| Cc1nc(C(C)c2cc(Cl)c(F)c(C(=O)NC3CC3)c2OC(C)C)n2ccnc(N)c12 (stereo not shown) [Compound 11, 3-(1-(8-amino-1-methylimidazo[1,5-a]pyrazin-3-yl)ethyl)-5-chloro-N-cyclopropyl-6-fluoro-2-isopropoxybenzamide] | 7300 | 2 | 6.2 | 31000 |
| Cc1nc(C(C)c2cc(Cl)c(F)c(C(=O)Nc3ccccc3)c2OC(C)C)n2ccnc(N)c12 (stereo not shown) [Compound 12, 3-(1-(8-amino-1-methylimidazo[1,5-a]pyrazin-3-yl)ethyl)-5-chloro-6-fluoro-2-isopropoxy-N-phenylbenzamide] | 14000 | 3.7 | > 50 | > 50000 |
| CCOCC1(NC(=O)c2c(F)c(Cl)cc([C@H](C)c3nc(C)c4c(N)nccn34)c2OC(C)C)CC1 [Compound 15, (S)-3-(1-(8-amino-1-methylimidazo[1,5-a]pyrazin-3-yl)ethyl)-5-chloro-N-(1-(ethoxymethyl)cyclopropyl)-6-fluoro-2-isopropoxybenzamide] | 6700 | 1.8 | > 50 | 36000 |
| Cc1nc([C@@H](C)c2cc(Cl)c(F)c(C(=O)NCCN(C)C)c2OC(C)C)n2ccnc(N)c12 [Compound 16, (S)-3-(1-(8-amino-1-methylimidazol[1,5-a]pyrazin-3-yl)ethyl)-5-chloro-N-(2-(dimethylamino)ethyl)-6-fluoro-2-isopropoxybenzamide] | 11000 | 4 | 17 | 20000 |
| COC[C@@H]1CCCN1C(=O)c1c(F)c(Cl)cc([C@H](C)c2nc(C)c3c(N)nccn23)c1OC(C)C [Compound 17, (3-((S)-1-(8-amino-1-methylimidazo[1,5-a]pyrazin-3-yl)ethyl)-5-chloro-6-fluoro-2-isopropoxyphenyl)((S)-2-(methoxymethyl)pyrrolidin-1-yl)methanone] | 14000 | 3.8 | 72 | 77000 |
| Cc1nc([C@@H](C)c2cc(Cl)c(F)c(C(=O)Nc3ccc(F)cc3)c2OC(C)C)n2ccnc(N)c12 [Compound 18, (S)-3-(1-(8-amino-1-methylimidazo[1,5-a]pyrazin-3-yl)ethyl)-5-chloro-6-fluoro-N-(4-fluorophenyl)-2-isopropoxybenzamide] | 6500 | 2.4 | 12 | 19000 |
| COC1CCN(C(=O)c2c(F)c(Cl)cc([C@H](C)c3nc(C)c4c(N)nccn34)c2OC(C)C)CC1 [Compound 19, (S)-(3-(1-(8-amino-1-methylimidazo[1,5-a]pyrazin-3-yl)ethyl)-5-chloro-6-fluoro-2-isopropoxyphenyl)(4-methoxypiperidin-1-yl)methanone] | 10000 | 2 | 60 | 33000 |
| Cc1nc([C@@H](C)c2cc(Cl)c(F)c(C(=O)N[C@@H](C)c3ccccc3)c2OC(C)C)n2ccnc(N)c12 [Compound 21, 3-((S)-1-(8-amino-1-methylimidazo[1,5-a]pyrazin-3-yl)ethyl)-5-chloro-6-fluoro-2-isopropoxy-N-((S)-1-phenylethyl)benzamide] | 3900 | 1.4 | 28 | 33000 |
| Cc1nc([C@@H](C)c2cc(Cl)c(F)c(C(=O)NC[C@@H]3CCCO3)c2OC(C)C)n2ccnc(N)c12 [Compound 24, 3-((S)-1-(8-amino-1-methylimidazo[1,5-a]pyrazin-3-yl)ethyl)-5-chloro-6-fluoro-2-isopropoxy-N-(((S)-tetrahydrofuran-2-yl)methyl)benzamide] | 5800 | 1.6 | 16 | 36000 |
